Patent publication US11629143B2, “HipK4 inhibitors and uses thereof” (Vibliome Therapeutics, LLC, priority 2020, dated 2023)

Experiments:
Test in all cases: Kinase panel (mobility shift)
Assay type in all cases: biochemical
P38-b = P38-b (Homo sapiens, UniProt Q15759)
Outline: (§1)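 Compound at 5 um + kinase + fluor-labeled substrate, standardized mix; rxn stopped; electrophoretic separation of product/substrate on chip; activity = product vs substrate peak fluorescence. Bins A ≥95%, B 90-94%, C 80-89%.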

HIPK4 = biological target: T1, HIPK4 (Homo sapiens, UniProt Q8NE63)
T1 sequence (Q8NE63 1-616): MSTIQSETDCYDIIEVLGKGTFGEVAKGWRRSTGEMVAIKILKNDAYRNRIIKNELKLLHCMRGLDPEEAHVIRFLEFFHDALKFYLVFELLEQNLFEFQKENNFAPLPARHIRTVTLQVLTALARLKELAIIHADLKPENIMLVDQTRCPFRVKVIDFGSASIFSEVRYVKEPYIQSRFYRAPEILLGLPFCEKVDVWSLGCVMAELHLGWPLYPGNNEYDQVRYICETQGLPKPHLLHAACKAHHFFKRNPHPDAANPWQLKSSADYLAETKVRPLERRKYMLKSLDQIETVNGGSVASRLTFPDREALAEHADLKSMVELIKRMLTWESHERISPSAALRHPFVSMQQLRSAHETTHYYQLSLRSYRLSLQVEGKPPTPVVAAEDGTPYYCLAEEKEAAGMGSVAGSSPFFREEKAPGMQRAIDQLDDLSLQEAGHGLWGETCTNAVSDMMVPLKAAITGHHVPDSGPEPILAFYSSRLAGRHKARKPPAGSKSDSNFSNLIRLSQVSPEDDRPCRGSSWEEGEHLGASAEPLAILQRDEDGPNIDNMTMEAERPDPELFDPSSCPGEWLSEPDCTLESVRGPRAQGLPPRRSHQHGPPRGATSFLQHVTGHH
Outline: as §1

PDGFR-b = PDGFR-b (Homo sapiens, UniProt P09619)
Chain of PDGFR-b (P09619 33-1106, species assumed): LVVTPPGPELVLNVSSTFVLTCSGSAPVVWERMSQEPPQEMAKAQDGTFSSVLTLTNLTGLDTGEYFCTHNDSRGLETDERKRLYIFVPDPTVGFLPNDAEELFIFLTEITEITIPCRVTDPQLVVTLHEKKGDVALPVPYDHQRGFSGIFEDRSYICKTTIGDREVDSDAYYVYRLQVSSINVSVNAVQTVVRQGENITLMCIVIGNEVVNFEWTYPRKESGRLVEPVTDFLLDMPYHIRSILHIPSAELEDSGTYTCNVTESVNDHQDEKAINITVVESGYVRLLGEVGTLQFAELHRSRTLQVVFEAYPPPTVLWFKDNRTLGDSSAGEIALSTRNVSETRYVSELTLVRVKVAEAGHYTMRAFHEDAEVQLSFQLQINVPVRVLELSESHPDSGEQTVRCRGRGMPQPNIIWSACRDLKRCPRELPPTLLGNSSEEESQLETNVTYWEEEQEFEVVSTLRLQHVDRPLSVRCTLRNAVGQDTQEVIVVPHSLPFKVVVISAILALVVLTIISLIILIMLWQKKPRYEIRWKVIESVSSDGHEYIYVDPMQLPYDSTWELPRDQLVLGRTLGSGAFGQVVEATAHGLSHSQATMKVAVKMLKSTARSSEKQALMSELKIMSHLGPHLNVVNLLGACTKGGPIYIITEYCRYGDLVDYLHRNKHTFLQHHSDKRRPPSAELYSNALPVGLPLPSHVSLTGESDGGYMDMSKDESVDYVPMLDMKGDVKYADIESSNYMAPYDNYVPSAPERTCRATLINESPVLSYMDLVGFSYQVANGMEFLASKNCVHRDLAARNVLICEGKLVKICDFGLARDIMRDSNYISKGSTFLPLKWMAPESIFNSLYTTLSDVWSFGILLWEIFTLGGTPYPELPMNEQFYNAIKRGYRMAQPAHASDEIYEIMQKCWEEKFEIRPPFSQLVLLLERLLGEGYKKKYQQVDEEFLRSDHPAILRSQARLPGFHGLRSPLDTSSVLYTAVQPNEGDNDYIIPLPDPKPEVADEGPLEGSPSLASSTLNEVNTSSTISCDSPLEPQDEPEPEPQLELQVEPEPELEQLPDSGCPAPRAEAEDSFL
Outline: as §1

EPH-A5 = EPH-A5 (Homo sapiens, UniProt P54756); conditions: at 5 um
Chain of EPH-A5 (P54756 25-1037, species assumed): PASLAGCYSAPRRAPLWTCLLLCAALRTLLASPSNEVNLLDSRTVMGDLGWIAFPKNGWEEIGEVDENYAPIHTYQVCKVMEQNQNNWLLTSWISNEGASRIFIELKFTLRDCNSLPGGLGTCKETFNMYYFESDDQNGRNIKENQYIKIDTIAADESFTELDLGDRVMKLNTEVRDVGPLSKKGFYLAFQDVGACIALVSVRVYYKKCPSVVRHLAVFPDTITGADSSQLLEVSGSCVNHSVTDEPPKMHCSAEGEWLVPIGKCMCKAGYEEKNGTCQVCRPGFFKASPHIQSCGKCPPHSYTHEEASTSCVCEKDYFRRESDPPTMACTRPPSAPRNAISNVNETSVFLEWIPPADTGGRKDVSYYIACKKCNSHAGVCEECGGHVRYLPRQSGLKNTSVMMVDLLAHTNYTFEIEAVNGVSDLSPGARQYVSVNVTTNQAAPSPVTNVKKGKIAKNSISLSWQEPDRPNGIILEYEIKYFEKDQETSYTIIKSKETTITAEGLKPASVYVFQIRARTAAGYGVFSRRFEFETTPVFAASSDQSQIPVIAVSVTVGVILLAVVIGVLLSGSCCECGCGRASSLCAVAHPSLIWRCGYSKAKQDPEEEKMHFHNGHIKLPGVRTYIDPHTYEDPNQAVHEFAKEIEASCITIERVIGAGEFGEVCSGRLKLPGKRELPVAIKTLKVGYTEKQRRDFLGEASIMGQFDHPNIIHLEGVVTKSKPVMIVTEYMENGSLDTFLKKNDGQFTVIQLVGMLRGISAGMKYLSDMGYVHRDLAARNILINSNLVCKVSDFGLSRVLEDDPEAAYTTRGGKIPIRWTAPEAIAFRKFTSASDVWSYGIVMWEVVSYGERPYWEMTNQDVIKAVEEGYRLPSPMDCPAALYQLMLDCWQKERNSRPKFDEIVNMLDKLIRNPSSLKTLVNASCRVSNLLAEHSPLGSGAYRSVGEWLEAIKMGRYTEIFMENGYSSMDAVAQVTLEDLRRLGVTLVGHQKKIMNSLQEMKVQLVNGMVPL
Outline: as §1

PDGFR-a = PDGFR-a (Homo sapiens, UniProt P16234)
Outline: as §1

TIE2 = TIE2 (Homo sapiens, UniProt Q02763)
Chain of TIE2 (Q02763 23-1124, species assumed): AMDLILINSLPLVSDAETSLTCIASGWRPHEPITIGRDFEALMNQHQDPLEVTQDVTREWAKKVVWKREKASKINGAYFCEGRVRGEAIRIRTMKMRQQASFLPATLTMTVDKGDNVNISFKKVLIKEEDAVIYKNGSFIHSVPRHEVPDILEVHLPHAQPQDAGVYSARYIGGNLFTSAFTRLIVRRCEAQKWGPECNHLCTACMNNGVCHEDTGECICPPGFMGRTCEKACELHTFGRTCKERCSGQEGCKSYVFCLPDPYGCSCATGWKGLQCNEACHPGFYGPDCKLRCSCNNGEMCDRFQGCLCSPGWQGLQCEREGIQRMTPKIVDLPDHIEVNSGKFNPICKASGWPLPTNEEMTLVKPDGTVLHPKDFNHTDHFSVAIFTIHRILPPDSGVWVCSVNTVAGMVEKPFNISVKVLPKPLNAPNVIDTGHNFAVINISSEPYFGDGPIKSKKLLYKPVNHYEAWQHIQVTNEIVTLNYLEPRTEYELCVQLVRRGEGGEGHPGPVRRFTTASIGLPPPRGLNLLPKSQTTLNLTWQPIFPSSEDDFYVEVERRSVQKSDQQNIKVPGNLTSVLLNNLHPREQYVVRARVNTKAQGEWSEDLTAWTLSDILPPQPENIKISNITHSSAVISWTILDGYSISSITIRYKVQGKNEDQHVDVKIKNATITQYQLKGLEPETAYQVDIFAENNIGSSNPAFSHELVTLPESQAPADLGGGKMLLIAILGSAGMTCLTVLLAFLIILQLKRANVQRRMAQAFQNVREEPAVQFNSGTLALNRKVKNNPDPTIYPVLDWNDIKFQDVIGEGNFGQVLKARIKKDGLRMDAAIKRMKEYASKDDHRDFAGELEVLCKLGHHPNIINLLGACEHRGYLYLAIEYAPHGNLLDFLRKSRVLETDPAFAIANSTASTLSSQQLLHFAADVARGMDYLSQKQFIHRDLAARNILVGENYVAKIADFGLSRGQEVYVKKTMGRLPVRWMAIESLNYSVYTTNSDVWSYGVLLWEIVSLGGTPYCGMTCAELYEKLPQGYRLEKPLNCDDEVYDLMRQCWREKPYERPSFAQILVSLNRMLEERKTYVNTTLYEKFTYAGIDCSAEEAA
Outline: as §1

LCK = LCK (Homo sapiens, UniProt P06239)
Chain of LCK (P06239 whole entry, species assumed): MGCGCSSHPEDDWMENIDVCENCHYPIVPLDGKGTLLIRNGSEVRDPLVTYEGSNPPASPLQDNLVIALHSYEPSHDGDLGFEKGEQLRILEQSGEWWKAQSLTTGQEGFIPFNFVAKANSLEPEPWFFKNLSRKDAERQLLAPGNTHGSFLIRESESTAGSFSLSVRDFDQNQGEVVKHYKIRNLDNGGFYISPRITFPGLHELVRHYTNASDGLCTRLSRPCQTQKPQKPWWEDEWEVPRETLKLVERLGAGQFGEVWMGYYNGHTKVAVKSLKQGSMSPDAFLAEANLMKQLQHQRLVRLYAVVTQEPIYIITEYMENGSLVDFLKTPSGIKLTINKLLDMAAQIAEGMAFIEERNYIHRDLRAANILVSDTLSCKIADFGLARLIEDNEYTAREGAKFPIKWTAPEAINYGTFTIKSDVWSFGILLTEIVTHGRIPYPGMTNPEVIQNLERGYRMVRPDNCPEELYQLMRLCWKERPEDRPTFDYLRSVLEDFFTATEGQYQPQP
Outline: as §1

MER = biological target: T2, MER (Homo sapiens, UniProt Q12866)
T2 sequence (Q12866 21-999): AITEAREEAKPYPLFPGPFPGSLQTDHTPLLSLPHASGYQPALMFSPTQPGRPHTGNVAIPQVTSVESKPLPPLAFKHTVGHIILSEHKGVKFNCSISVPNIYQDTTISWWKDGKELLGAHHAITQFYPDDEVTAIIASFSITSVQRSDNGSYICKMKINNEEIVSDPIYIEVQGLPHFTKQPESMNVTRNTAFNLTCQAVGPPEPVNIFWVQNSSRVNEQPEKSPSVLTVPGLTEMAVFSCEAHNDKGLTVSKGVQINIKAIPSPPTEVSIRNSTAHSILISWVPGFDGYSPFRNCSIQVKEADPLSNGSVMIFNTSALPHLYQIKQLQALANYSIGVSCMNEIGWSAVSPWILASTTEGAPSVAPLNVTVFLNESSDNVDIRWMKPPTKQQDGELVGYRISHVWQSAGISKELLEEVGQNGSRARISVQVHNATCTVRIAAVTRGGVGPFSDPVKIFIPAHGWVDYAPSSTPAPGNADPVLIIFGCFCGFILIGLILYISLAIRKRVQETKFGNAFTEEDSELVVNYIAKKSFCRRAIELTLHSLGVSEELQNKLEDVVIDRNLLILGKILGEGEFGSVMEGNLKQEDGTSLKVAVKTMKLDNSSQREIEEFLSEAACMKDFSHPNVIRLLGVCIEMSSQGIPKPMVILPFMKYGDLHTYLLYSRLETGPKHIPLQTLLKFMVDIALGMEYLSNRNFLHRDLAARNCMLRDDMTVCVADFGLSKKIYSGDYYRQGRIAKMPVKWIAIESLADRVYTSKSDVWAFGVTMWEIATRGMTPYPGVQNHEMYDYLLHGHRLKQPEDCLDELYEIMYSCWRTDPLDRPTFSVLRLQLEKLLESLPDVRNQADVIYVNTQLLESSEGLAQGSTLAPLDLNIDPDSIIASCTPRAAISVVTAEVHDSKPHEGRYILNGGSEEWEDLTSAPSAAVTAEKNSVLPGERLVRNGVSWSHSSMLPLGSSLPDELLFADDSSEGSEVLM
Outline: as §1

SRC = SRC (Homo sapiens, UniProt P12931)
Chain of SRC (P12931 whole entry, species assumed): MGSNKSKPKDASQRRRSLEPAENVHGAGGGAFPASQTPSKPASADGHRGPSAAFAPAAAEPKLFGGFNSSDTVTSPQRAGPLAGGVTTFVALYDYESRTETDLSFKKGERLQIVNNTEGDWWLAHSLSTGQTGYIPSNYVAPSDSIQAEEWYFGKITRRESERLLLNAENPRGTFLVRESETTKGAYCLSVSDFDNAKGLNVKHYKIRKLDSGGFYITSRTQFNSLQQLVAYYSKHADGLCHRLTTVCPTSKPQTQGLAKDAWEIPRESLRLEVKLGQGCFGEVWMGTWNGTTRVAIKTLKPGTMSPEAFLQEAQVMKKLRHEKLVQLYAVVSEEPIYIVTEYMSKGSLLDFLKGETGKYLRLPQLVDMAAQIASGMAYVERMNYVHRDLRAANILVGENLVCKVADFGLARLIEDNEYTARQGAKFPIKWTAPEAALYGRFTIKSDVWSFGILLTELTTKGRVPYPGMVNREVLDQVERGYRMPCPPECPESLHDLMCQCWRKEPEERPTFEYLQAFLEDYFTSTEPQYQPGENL
Outline: as §1

HIPK3 = HIPK3 (Homo sapiens, UniProt Q9H422)
Outline: as §1

Chain of P38-b (Q15759 whole entry, species assumed): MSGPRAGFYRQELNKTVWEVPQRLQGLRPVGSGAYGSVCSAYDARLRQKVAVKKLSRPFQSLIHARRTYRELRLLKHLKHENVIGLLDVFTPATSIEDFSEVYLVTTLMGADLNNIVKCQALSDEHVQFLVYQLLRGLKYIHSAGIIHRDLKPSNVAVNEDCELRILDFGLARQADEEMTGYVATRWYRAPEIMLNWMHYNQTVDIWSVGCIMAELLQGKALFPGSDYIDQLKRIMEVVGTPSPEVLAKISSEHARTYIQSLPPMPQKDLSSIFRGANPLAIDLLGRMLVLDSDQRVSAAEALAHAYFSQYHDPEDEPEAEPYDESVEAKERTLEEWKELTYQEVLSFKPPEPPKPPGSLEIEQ

SMILES | inhibition at 5 µM (P38-b) | inhibition at 5 µM (HIPK4) | inhibition at 5 µM (PDGFR-b) | inhibition of kinase activity, EPH-A5 (EPH-A5) | inhibition at 5 µM (PDGFR-a) | inhibition at 5 µM (TIE2) | inhibition at 5 µM (LCK) | inhibition at 5 µM (MER) | inhibition at 5 µM (SRC) | inhibition at 5 µM (HIPK3)
COc1nc(C(=O)Nc2ccc(Oc3ccnc(C(=O)NC4COC4)c3)c(F)c2)c(-c2ccc(F)cc2)o1 [Compound 39] | < 50% | ≥ 95% | < 50% | E (category E is less than 50%) | < 50% | < 50% | < 50% | < 50% | < 50% | < 50%
CNC(=O)c1cc(Oc2ccc(NC(=O)c3nc(OC)oc3-c3ccc(F)s3)cc2F)ccn1 [Compound 25] | < 50% | ≥ 95% | < 50% | E (category E is less than 50%) | < 50% | < 50% | < 50% | < 50% | < 50% | < 50%
CNC(=O)c1cc(Oc2ccc(NC(=O)c3nc(SC)oc3-c3ccc(F)cc3Cl)cc2)ccn1 [Compound 3] | < 50% | ≥ 95% | < 50% | E (category E is less than 50%) | 50 to 79% | 50 to 79% | ≥ 95% | 90 to 94% | 80 to 89% | < 50%
CNC(=O)c1cc(Oc2ccc(NC(=O)c3nc(S(C)(=O)=O)sc3-c3ccc(F)cc3)cc2F)ccn1 [Compound 13] | < 50% | ≥ 95% | < 50% | D (category D for 50-79) | 50 to 79% | 50 to 79% | 90 to 94% | 80 to 89% | < 50% | 80 to 89%
CNC(=O)c1cc(Oc2ccc(NC(=O)c3nc(NC)oc3-c3ccc(F)cc3)cc2F)ccn1 [Compound 14] | < 50% | ≥ 95% | < 50% | D (category D for 50-79) | < 50% | 50 to 79% | 50 to 79% | 50 to 79% | < 50% | 50 to 79%

Other lines, results leading:

inhibition at 5 µM (P38-b) | inhibition at 5 µM (HIPK4) | inhibition at 5 µM (PDGFR-b) | inhibition of kinase activity, EPH-A5 (EPH-A5) | inhibition at 5 µM (PDGFR-a) | inhibition at 5 µM (TIE2) | inhibition at 5 µM (LCK) | inhibition at 5 µM (MER) | inhibition at 5 µM (SRC) | inhibition at 5 µM (HIPK3) | SMILES
< 50% | ≥ 95% | < 50% | E (category E is less than 50%) | < 50% | < 50% | < 50% | < 50% | < 50% | < 50% | CSc1nc(C(=O)Nc2ccc(Oc3ccnc(C(=O)NCC(F)(F)F)c3)c(F)c2)c(-c2ccc(F)cc2)o1 [Compound 40]
< 50% | ≥ 95% | < 50% | E (category E is less than 50%) | < 50% | < 50% | < 50% | < 50% | < 50% | < 50% | COc1nc(C(=O)Nc2ccc(Oc3ccnc(C(=O)NCC(F)(F)F)c3)c(F)c2)c(-c2ccc(F)cc2)o1 [Compound 43]
